Molecules are shown by their SMILES.

The subject of the assay is human whole blood. Kind of assay: IFN-α/β, IFN-γ, and TNF-α/IL-1β whole blood reporter gene assays (cytokine release). The assay is classed as cell-based. As to conditions: FIG. 4. The method, then:
IFN-α/β, IFN-γ, and TNF-α/IL-1β Whole Blood Reporter Gene Assays. Whole heparinized blood is collected from consenting individuals, as approved by the University of Minnesota Institutional Review Board, and is diluted 1:2 in RPMI supplemented with 10% fetal bovine serum (FBS). Forty microliters is added to 384-well, flat-bottomed, cell culture-treated microtiter plates containing serial dilutions of compounds. Following incubation at 37° C. for 24 h, […] of supernatant is transferred to separate 384-well plates using a liquid handler equipped with liquid level sensing in order to avoid disturbing the erythrocyte-rich pellet. Forty microliters of HEK-IFNα/β, HEK-IFNγ, or HEK-TNFα/IL-β cytokine reporter cells (InvivoGen, San Diego, CA) harvested at a density of 1×10^6 cells/mL in DMEM with 10% FBS is added to the supernatant plates and incubated at 37° C. for 24 h. […] Sigmoidal dose-response profiles for each cytokine are observed (Beesu M. et al. J. Med. Chem. 2017, 2084), from which threshold cytokine concentrations corresponding to maximal responses for each cytokine reporter cell line are recorded. […]
A general note: Reporter assays use an easily measured gene product as a stand-in for the process of interest.

On to `CCCCc1nc2c(N)nc3ccccc3c2n1Cc1cc(C)c(O)c(CN)c1` [Compound 29, 4-((4-Amino-2-butyl-1H-imidazo[4,5-c]quinolin-1-yl)methyl)-2-(aminomethyl)-6-methylphenol], for which the “cytokine release in human whole blood” value is listed as “can induce cytokine release strongly”.

The record behind these values is patent US12060350B2, “Therapeutic compounds and methods of use thereof” (REGENTS OF THE UNIVERSITY OF MINNESOTA, priority 2018, dated 2024).
